Laboratory results taken from US20110092505A1, “ORGANIC COMPOUNDS” (priority 2008, published 2011).
Read-outs that look alike come from different tables or passages of the source.

Assays:
[1] = molecular target: T1, protein kinase D1 (PKD1) (Homo sapiens, UniProt Q15139); assay: PKD1 TR-FRET (LANCE) kinase assay; format: biochemical; conditions: full length wild-type enzyme, 20 μM ATP, syntide-2 substrate; read-out: Inhibitory Activity PKD1
T1 construct: This assay is performed with full length wild-type enzyme that is expressed and purified from Sf9 insect cells; made in house; host or cells: Sf9 insect cells
T1 sequence (Q15139 1-912): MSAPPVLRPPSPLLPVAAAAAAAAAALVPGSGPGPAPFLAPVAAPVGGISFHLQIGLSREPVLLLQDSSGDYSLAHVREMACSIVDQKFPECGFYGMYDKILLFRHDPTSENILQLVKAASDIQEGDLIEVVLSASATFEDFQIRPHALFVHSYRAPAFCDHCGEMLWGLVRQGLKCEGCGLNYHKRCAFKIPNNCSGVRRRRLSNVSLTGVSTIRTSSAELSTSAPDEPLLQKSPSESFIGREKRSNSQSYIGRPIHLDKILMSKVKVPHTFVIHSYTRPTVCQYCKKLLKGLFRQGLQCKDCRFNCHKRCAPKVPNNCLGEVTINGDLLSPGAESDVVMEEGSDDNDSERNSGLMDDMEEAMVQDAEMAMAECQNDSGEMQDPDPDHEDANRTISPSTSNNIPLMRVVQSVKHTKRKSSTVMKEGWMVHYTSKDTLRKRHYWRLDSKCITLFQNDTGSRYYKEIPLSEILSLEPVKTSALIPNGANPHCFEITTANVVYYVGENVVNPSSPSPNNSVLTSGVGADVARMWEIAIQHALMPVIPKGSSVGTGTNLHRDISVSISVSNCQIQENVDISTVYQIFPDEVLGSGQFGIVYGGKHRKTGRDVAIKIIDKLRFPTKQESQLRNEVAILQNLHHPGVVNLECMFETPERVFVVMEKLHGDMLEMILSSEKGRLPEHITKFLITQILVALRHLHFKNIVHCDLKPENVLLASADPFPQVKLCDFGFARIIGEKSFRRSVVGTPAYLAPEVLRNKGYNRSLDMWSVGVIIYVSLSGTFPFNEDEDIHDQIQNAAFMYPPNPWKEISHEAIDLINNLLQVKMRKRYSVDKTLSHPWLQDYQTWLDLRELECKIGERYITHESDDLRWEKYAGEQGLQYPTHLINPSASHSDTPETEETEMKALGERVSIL
Excerpt: (§1) The assay to measure protein kinase D1 (PKD1) activity is a time-resolved fluorescence resonance transfer (TR-FRET) assay using PerkinElmer's LANCE™ technology. In this case, a biotinylated syntide-2 peptide is used as the substrate in this reaction. Phosphorylation of the syntide-2 substrate is detected by a specific antibody that recognizes the phosphorylated peptide. A second fluorophore, APC, is conjugated to streptavidin that binds the biotinylated syntide-2 peptide. […] Therefore, when the europium labeled secondary antibody binds on the phosphorylated peptide, it is brought into close contact with the APC and excites this fluorophore.
(§2) This assay is performed with full length wild-type enzyme that is expressed and purified from Sf9 insect cells. The reaction buffer consists of 35 mM Tris-HCl pH7.5, 5 mM MgCl2, 0.02% Tween-20, 20 μM ATP, 1 mM DTT and 0.2 μg/mL PKD1 enzyme. The enzyme reaction is initiated by the addition of 2 μM syntide-2 peptide substrate and the reaction carried out for 50 minutes at room temperature. The reaction is stopped by a stop/detection Buffer consisting of 50 mM EDTA, 0.18 mg/mL rabbit polyclonal anti-phospho Syntide-2 antibody, 0.5 nM europium labeled anti-rabbit IgG and 10 nM streptavidin conjugated APC. […] IC50 values are calculated using an Activity Base (IDBS) software program.

[2] = molecular target: T2, protein kinase D2 (PKD2) (Homo sapiens, UniProt Q9BZL6); assay: PKD2 TR-FRET (LANCE) kinase assay; format: biochemical; conditions: full length wild-type enzyme, 20 μM ATP, syntide-2 substrate; read-out: Inhibitory Activity PKD2
T2 construct: This assay is performed with full length wild-type enzyme purchase from Invitrogen; purchased Invitrogen
T2 sequence (Q9BZL6 1-878): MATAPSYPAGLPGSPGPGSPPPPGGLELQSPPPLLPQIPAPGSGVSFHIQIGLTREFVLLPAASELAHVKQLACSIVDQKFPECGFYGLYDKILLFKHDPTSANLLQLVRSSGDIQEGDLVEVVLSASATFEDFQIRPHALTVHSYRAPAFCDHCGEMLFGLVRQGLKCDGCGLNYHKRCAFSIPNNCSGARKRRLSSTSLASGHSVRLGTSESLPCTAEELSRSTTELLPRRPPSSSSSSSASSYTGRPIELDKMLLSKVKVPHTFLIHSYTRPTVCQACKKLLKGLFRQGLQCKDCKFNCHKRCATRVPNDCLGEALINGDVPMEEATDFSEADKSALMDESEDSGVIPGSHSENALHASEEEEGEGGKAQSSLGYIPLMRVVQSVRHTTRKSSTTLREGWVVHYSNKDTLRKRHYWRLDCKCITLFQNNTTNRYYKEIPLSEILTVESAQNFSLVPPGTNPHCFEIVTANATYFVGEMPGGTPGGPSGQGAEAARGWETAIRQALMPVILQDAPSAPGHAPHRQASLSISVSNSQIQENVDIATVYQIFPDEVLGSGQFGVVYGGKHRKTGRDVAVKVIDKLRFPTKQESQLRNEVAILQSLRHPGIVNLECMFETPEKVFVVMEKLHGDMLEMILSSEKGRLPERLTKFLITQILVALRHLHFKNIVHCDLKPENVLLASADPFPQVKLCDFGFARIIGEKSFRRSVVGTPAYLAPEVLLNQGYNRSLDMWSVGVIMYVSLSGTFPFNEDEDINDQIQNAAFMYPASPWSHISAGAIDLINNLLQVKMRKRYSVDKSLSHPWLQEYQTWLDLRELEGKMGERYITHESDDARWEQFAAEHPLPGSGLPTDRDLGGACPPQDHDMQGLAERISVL
Excerpt: as §1, with “D2 (PKD2)” for “D1 (PKD1)”
as §2, with “purchase” for “that is expressed and purified”, “Invitrogen.” for “Sf9 insect cells.”, “PKD2” for “PKD1”, “APC. After a one hour incubation with the stop/detection buffer, the reaction is read on an Envision 2100 Reader using a LANCE™ Eu/APC dual protocol.” for “APC.”

[3] = tested on: agonist-dependent nuclear export of HDAC5; assay: HDAC5 nuclear export assay (GFP-HDAC5, Cellomics imaging); format: cell-based; conditions: Rattus norvegicus, Ventricular myocyte, 2 h, read-out: Inhibitory Activity HDAC
Description: Compounds are evaluated in the HDAC5 nuclear export assay, a 384-well plate-based assay that enables high throughput screening (HTS) to identify small molecules that block agonist-dependent nuclear export of HDAC5. […] Neonatal rat ventricular myocytes (NRVMs) are infected with GFP-HDAC5 encoding virus and plated on gelatin-coated 384-well dishes. […] Following two hours of stimulation, cells are fixed and GFP-HDAC5 localization quantified using the Cellomics system, which provides a read-out of relative fluorescence intensity in the cytoplasmic versus nuclear compartment.

[4] = molecular target: T3, protein kinase D3 (PKD3) (Homo sapiens, UniProt O94806); assay: PKD3 TR-FRET (LANCE) kinase assay; format: biochemical; conditions: full length wild-type enzyme, 20 μM ATP, syntide-2 substrate; read-out: Inhibitory Activity PKD3
T3 construct: This assay is performed with full length wild-type enzyme that is purchased from Invitrogen; purchased Invitrogen
T3 sequence (O94806 1-890): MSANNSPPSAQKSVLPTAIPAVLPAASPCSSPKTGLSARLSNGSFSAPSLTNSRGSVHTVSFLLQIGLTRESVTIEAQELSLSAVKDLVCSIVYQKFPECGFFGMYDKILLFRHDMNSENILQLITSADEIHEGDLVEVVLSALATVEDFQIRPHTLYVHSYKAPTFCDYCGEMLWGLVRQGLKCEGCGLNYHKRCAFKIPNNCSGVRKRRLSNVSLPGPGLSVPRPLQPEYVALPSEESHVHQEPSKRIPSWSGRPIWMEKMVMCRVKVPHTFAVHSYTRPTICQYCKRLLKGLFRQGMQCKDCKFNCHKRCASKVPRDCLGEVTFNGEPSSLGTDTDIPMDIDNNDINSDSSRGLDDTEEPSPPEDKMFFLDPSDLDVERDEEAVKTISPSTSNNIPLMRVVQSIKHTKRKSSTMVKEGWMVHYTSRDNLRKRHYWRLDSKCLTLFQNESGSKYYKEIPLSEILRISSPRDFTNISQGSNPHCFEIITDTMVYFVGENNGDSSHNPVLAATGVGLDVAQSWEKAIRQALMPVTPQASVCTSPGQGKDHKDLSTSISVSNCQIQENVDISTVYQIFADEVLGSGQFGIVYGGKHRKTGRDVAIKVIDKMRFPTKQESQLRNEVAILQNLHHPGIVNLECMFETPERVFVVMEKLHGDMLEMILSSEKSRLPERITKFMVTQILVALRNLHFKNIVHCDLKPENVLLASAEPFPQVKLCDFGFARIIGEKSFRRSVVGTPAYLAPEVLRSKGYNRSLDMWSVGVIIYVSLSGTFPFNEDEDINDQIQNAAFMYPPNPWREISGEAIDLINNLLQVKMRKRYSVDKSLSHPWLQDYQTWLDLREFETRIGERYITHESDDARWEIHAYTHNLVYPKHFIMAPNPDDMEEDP
Excerpt: as §1, with “D3 (PKD3)” for “D1 (PKD1)”
as §2, with “purchased” for “expressed and purified”, “Invitrogen.” for “Sf9 insect cells.”, “PKD3” for “PKD1”, “buffer” for “Buffer”, “APC. After a one hour incubation with the stop/detection buffer, the reaction is read on an Envision 2100 Reader using a LANCE™ Eu/APC dual protocol.” for “APC.”

IC50 ([3]; neonatal rat ventricular myocytes, PGF2α stimulation, two hours) [nM] | SMILES | IC50 [1] [nM] | IC50 [2] [nM] | IC50 [3] [nM] | IC50 [4] [nM]
> 1000 | Cn1ccc(Nc2cc(-c3cc(C#N)cc(N4CCNCC4)n3)ccn2)n1 [2′-(1-Methyl-1H-pyrazol-3-ylamino)-6-piperazin-1-yl-[2,4′]bipyridinyl-4-carbonitrile] | 8 | 76 | – | –
– | C[C@@H]1CN(c2cc(C(N)=O)cc(-c3ccnc(NC4CCCCC4)c3)n2)CCN1 [2′-Cyclohexylamino-6-((R)-3-methylpiperazin-1-yl)-[2,4′]bipyridinyl-4-carboxylic acid amide] | 6 | 60 | 679 | –
– | CC(C)Nc1cc(-c2cc(-c3cn[nH]c3)cc(N3CCNCC3)n2)ccn1 [iso-Propyl-[6-piperazin-1-yl-4-(1H-pyrazol-4-yl)-[2,4′]bipyridinyl-2′-yl]-amine] | – | 3 | 92 | < 1
